Measurements: patent US7405037B2, “Methods and tools for detecting collagen degradation” (Lonza Walkersville, Inc., priority 2004, dated 2008)
No end group written: not given here.

Legend:
[1] = system: primary human osteoclast precursors; experiment: TRAP stain (multinucleated TRAP-positive cells/well); assay type: cell-based
Procedure: Primary human osteoclast precursors were seeded onto europium chelate-labeled collagen covalently bound to a maleic anhydride-derivatized polystyrene plate at 10,000 cells/well and cultured in medium containing soluble RANK ligand with and without interferon γ. After 9 days, cell culture media were assayed for fluorescent collagen peptides as described in Example 1. Cells in the plate were subsequently stained for TRAP (Sigma # 386-A).
In another experiment, osteoclast precursors were cultured in differentiation medium with and without different concentrations of alendronate. After 7 days the media were renewed and, after an additional 3 days, the cell culture media were sampled as described in Example 1. Cells in the plate were subsequently stained for TRAP (Sigma # 386-A).

[2] = system: primary human osteoclasts; experiment: OsteoLyse assay: release of europium chelate-labeled collagen fragments by osteoclasts; assay type: cell-based; design: inhibition of bone matrix degradation: dose or concentration left out as unconfirmed
Procedure: Remove a 96-well cell culture plate to which europium chelate-labeled collagen (e.g., collagen labeled with Eu^3+-N′-(p-isothiocyanatobenzyl) diethylenetriamine-N^1,N^2,N^3-tetraacetic acid) is covalently bound from 4° C. storage and let it warm to room temperature. Seed mature osteoclasts or osteoclast precursors (human or non-human) onto the cell culture plate in medium containing M-CSF and soluble RANK ligand. If using Cambrex's primary human osteoclast precursors (Poietics™ Human Osteoclast Precursors), seed the cells at a density of 10,000 cells/well in osteoclast precursor differentiation medium (Cambrex product # PT-8001). See Example 2 for a detailed protocol for the culture of primary human osteoclast precursors (Cambrex product # 2T-110). Precursors cultured in the absence of soluble RANK ligand can serve as “undifferentiated” controls.
Culture the cells for 6 days and then renew the cell culture medium. Fresh medium preferably contains the same concentrations of M-CSF and soluble RANK ligand as in the original day 0 medium. Unused control and differentiation media from day 0 can be frozen (on day 0) and used for the day 6 medium changes.
At least two different types of protocols can be used. If the assay is used to measure the effect of a test compound on differentiation of the osteoclast precursor, the test compound typically is added at day 0 and removed at day 6. However, if the assay is used to measure the effect of a test compound on mature osteoclast function (i.e., bone matrix collagen degradation), the test compound typically is added at day 6 with the new medium addition.
The cell culture medium can be sampled at any time after the medium change. Because a very small volume (5 to 10 μl) of medium is sampled, it is very easy to do time-course studies by repeatedly sampling the medium on sequential days. Medium volumes greater than 10 μl are unnecessary and, because an excess of fluorophore releasing reagent with respect to sample is desired, actually may lead to inefficient counting of the fluorophore as the ratio of fluorophore releasing reagent to sample decreases. […]
Determine the fluorescence of each well of the assay vessel in a time-resolved fluorescence fluorimeter (e.g., a Wallac Victor, with excitation at 340 nm and emission at […]) over a […] time period after an initial delay of 400 μseconds.
Primary human osteoclast precursors were seeded onto europium chelate-labeled collagen covalently bound to a maleic anhydride-derivatized polystyrene plate (Pierce Reacti-Bind™) at 10,000 cells/well and cultured in differentiation medium containing (1) no calcitonin, (2) calcitonin added only at day 5, or (3) calcitonin added on both days 0 and 5. Ten μl samples of culture media were counted after a total of 6 days. […]

osteoclast precursors = experiment: Osteoclast-mediated degradation of covalently bound FITC-labeled collagen (DQ collagen); assay type: cell-based, human; settings: 1 ng/ml; days 5, 7 and 9 of culture; FITC-labeled bovine type I collagen
Procedure: FITC-labeled bovine type I collagen (DQ collagen, Molecular Probes, Inc.) was covalently bound to the surface of a maleic anhydride-derivatized 96-well tissue culture plate. Osteoclast precursors were cultured, with and without differentiation, in the plate as described in Example 2. Interferon γ (1 ng/ml) was added to some wells. At days 5, 7 and 9 of culture, 10 μl samples of each well were collected and added to 200 μl phosphate-buffered saline and counted in a fluorimeter (485/535 nm).

[3] = 9 days of culture, medium with soluble RANK ligand

For “interferon γ [cytokine added to osteoclast precursor cultures]”, the “IC50, percent inhibition relative to controls, TRAP assay” value [1, 3] was “approximately 0.1 ng/ml”, the “IC50, percent inhibition relative to controls, OsteoLyse assay” value [2, 3] was “approximately 0.1 ng/ml” and the “inhibition of osteoclast-mediated collagen degradation” value (osteoclast precursors) was “completely inhibited”.

`NCCCC(O)(P(=O)(O)O)P(=O)(O)O` [alendronate] was tested, and the “inhibition of differentiation of osteoclast precursors (multinucleated TRAP-positive osteoclasts)” value ([1]; different concentrations, medium renewed after 7 days, 3 additional days) was “did not inhibit” and the IC50 ([2]; Osteoclast, OsteoLyse assay, primary human osteoclasts, read-out: IC50, in vitro inhibition of bone resorption) was roughly 2000 nM.

For “calcitonin (CGNLSTCMLGTYTQDFNKFHTFPQTAIGVGAP; ends and bridges not checked; cysteine pairing not given here; UniProt P01258 85-116, looked up)”, the “effect on resorptive activity of the osteoclasts” value ([2]; calcitonin added on days 0 and 5 (prior exposure on day 0)) was “little effect” and the “inhibition of bone matrix degradation” value ([2]; calcitonin for 24 hours (added day 5 of culture), counted after 6 days) was 88%.
